The source of these data is article PMC10687119, “Quaternary Ammonium Salts of Cationic Lipopeptides with Lysine Residues — Synthesis, Antimicrobial, Hemolytic and Cytotoxic Activities” (Probiotics and Antimicrobial Proteins, 2023).

≈ marks a conversion by molar mass, not a printed value. Where a SMILES comes first, the peptide text is derived from it. [ ]: non-standard residue; d: D form. The star is where a group is joined. Lys(Me3) = C[N+](C)(C)CCCC[C@H](N)C(=O)O; Stearoyl = CCCCCCCCCCCCCCCCCC(=O)*; Palmitoyl = CCCCCCCCCCCCCCCC(=O)*; Myristoyl = CCCCCCCCCCCCCC(=O)* A value given as a limit tells only on which side of the number the result lay.

The test system of one data set is C. glabrata ATCC 15126. The format is cell-based, Candida glabrata. Conditions: ATCC 15126, 24 h. The procedure:
(§1) The Acinetobacter baumannii ATCC BAA-1605, Enterococcus faecium ATCC 700221, Klebsiella aerogenes ATCC 13048, Klebsiella pneumoniae ATCC 700603, Pseudomonas aeruginosa ATCC 9027, Staphylococcus aureus ATCC 33591, Candida glabrata ATCC 15126 strains were acquired from the American Type Culture Collection (ATCC, Manassas, USA). All the strains were stored at −80 °C in Roti-Store cryo vials (Carl Roth GmbH, Germany) and before the tests were transferred into fresh Mueller–Hinton broth (MHB, Becton Dickinson, Poland) for bacteria or RPMI-1640 (Sigma-Aldrich, Germany) for fungi and incubated for 24 h at 37 °C. Then, the cultures were cultured on the Mueller–Hinton agar (BioMaxima, Poland) or Sabouraud dextrose agar (SDA, BioMaxima) plates, respectively, and incubated as just mentioned. For microbiological assays, a minimum of three to five well-isolated colonies of the same morphological type were carefully picked from the agar cultures. These colonies were transferred with sterile loop into fresh microbiological medium and incubated with shaking (100 rpm) at 37 °C until they reached logarithmic phase of growth. Cell densities for all assays were adjusted through spectrophotometric measurements (Multiskan GO Microplate Spectrophotometer, Thermo Fisher Scientific, Finland) at 600 and 530 nm for bacteria and fungi, respectively.
(§2) The MICs were determined by broth microdilution method according to the Clinical and Laboratory Standard Institute guidelines. For this purpose, initial inoculums of bacteria (5 × 10^5 CFU/mL) in MHB and yeasts (2 × 10^3 CFU/mL) in RPMI-1640 with 2% D-glucose were exposed to the ranging concentration of lipopeptides (1–512 μg/mL) and incubated at 37 °C for 18 h and 24 h, respectively. The experiments were conducted on 96-well microtiter polystyrene plates (Kartell, Italy). The growth was assessed visually after incubation and the MIC was assumed as the lowest peptide concentration at which a noticeable growth of microorganisms was inhibited. Benzalkonium chloride (Sigma-Aldrich, Germany) was used as reference compound. All experiments were conducted in triplicate.

In data set [1] the test system is K. pneumoniae ATCC 700603. The format is cell-based, Klebsiella pneumoniae. Conditions: ATCC 700603, 18 h. The procedure:
as §1, §2

For data set [2], the system named is A. baumannii ATCC BAA 1605. The format is cell-based, Acinetobacter baumannii. Conditions: ATCC BAA 1605, 18 h. The procedure: as §1, §2
Data set [3] concerns human red blood cells (RBCs). The format is cell-based. Conditions: red cells of human. The procedure:
The hemolysis assay was conducted using a procedure described previously. For this purpose, human red blood cells (RBCs) isolated from K2EDTA Single Donor Human Whole blood (Innovative Research, Inc, MI, USA) were rinsed with Phosphate-buffer saline (PBS, pH 7.4±0.05, composition - KCl 2.7 mM, NaCl 140 mM, phosphate 10mM; AppliChem GmbH, Germany) by centrifugation for 10 min at 800 × g. This process was repeated 3 times and the RBCs were resuspended in PBS. Then, the stock solution of RBCs was added to the serial dilution of lipopeptides on 96-well polystyrene plates to reach a final volume of 100 μL with a 4% concentration of erythrocytes (v/v) and a concentration range of 1-512 μg/mL of tested compounds. The control wells for 0% and 100% hemolysis consisted of RBCs suspended in PBS and 1% of Triton X-100 (Sigma-Aldrich, Germany), respectively. Benzalkonium chloride (Sigma-Aldrich, Germany) was used as reference compound. Subsequently, the plates were incubated for 60 min at 37 °C and then centrifuged at 800 × g for 10 min at 4 °C (Sorvall ST […] Centrifuge, Thermo Scientific). The supernatant was carefully […] to new microtiter plates. The release of hemoglobin was monitored absorbance measurements at 540 nm (MultiskanTM GO Microplate Spectrophotometer, Thermo Scientific). All experiments were conducted in triplicate. HC50 was calculated using an ic50.tk tool.

The test system of the next data set is K. aerogenes ATCC 13048. The format is cell-based, Klebsiella aerogenes. Conditions: ATCC 13048, 18 h. The procedure: as §1, §2
For a further data set, the system named is S. aureus ATCC 33591. The format is cell-based, Staphylococcus aureus. Conditions: ATCC 33591, 18 h. The procedure: as §1, §2
The next data set relates to E. faecium ATCC 700221. The class given is cell-based, Enterococcus faecium. Conditions: ATCC 700221, 18 h. The procedure: as §1, §2
Data set [4] deals with human keratinocyte cell line (HaCaT). The class given is cell-based. Conditions: 24 h. The procedure:
The immortalized human keratinocyte cell line (HaCaT), obtained from CLS (Cell Line Service, Germany) was cultured in DMEM-high glucose (Dulbecco’s Modified Eagle Medium) supplemented with 10% fetal bovine serum, 2 mM L-glutamine, 100 U/mL penicillin and 100 μg/mL streptomycin (Sigma-Aldrich; Merck KGaA) at 37 °C in a humidified atmosphere with 5% CO2. Cells were trypsinized, and the medium was renewed 2–3 times per week. The cytotoxicity of compounds was assessed by colorimetric CellTilter 96® Aqueous One Solution Cell Proliferation Assay (Promega, USA), containing a tetrazolium compound according to the manufacturer’s instructions. In brief, 7 × 10^3 HaCaT cells per well were plated on 96-well plates and incubated per night to adhere to the cultured dishes. After that time, different concentrations of the tested compounds ranging from 512 to 1 μg/mL were applied to the wells. Every compound was medium-soluble at 37 °C; thus, the non-treated cells were negative control. Serial dilutions of the tested compounds were always prepared before use. Cells were incubated with drugs for 24 h, and then, 20 μL of the CellTiter 96®AqueousOne Solution Reagent was added to each well containing treated cells in 100 µl of culture medium. After 4 h of incubation at 37 °C, the absorbance at 490 nm was recorded using a microplate reader (Epoch, BioTek Instruments, USA). The quantity of formazan product as measured by the amount of 490 nm absorbance is directly proportional to the number of living cells in culture. Benzalkonium chloride (Sigma-Aldrich, Germany) was used as reference compound. At least three independent experiments with two replicates were conducted for each concentration of a compound, and the IC50 values were calculated using GraphPad Prism 8 software.

For a further data set, the system named is P. aeruginosa ATCC 9027. The format is cell-based, Pseudomonas aeruginosa. Conditions: ATCC 9027, 18 h. The procedure:
as §1, §2

The conditions of data set [5]: cited from earlier work.
The next data set concerns S. aureus. Further details: method as in PMID 20374251. Conditions: against S. aureus ref 5; cited from earlier work.
Another data set relates to human keratinocytes. More on the design: method as in PMID 33003569. Conditions: toxicity towards human keratinocytes ref 3; in µg/mL; cited from earlier work.

As to `CCCCCCCCCCCCCC(=O)N[C@@H](CCCCN)C(=O)N[C@@H](CCCCN)C(=O)N[C@@H](CCCCN)C(=O)N[C@@H](CCCCN)C(N)=O` [Peptide 4M, C14-KKKK-NH2] (Myristoyl-KKKK-NH2), the minimal inhibitory concentration (MIC) against C. glabrata ATCC 15126 is recorded as 512 µg/mL (≈ 692 µM); in [1] it was over 512 µg/mL; in data set [2], 512 µg/mL (≈ 692 µM); against K. aerogenes ATCC 13048 it was 256 µg/mL (≈ 346 µM); in the data set on S. aureus ATCC 33591, 32 µg/mL (≈ 43.2 µM); in the data set with E. faecium ATCC 700221 it was 16 µg/mL (≈ 21.6 µM). The molecule further gave an MIC in the data set on P. aeruginosa ATCC 9027 of 256 µg/mL (≈ 346 µM). For the same molecule, the HC50 in data set [3] was over 512 µg/mL. The IC50 in data set [4] came out at 252.20 ± 36.68 µg/mL (≈ 341 µM).
`CCCCCCCCCCCCCC(=O)N[C@@H](CCCC[N+](C)(C)C)C(=O)N[C@@H](CCCC[N+](C)(C)C)C(=O)N[C@@H](CCCC[N+](C)(C)C)C(=O)N[C@@H](CCCC[N+](C)(C)C)C(N)=O` [Peptide 4Mq, C14-K(Me3)^+K(Me3)^+K(Me3)^+K(Me3)^+-NH2] (Myristoyl-[Lys(Me3)][Lys(Me3)][Lys(Me3)][Lys(Me3)]-NH2): the minimal inhibitory concentration (MIC) is listed as over 512 µg/mL against C. glabrata ATCC 15126; over 512 µg/mL in data set [1]; over 512 µg/mL in data set [2]; over 512 µg/mL against K. aerogenes ATCC 13048; over 512 µg/mL in the data set on S. aureus ATCC 33591; 128 µg/mL with E. faecium ATCC 700221. The MIC against P. aeruginosa ATCC 9027 is recorded as over 512 µg/mL. This molecule also showed an HC50 in data set [3] of over 512 µg/mL. In [4], the IC50 is given as over 512 µg/mL.
With `CCCCCCCCCCCCCCCC(=O)N[C@@H](CCCC[N+](C)(C)C)C(=O)N[C@@H](CCCC[N+](C)(C)C)C(=O)N[C@@H](CCCC[N+](C)(C)C)C(=O)N[C@@H](CCCC[N+](C)(C)C)C(N)=O` [Peptide 4Pq, C16-K(Me3)^+K(Me3)^+K(Me3)^+K(Me3)^+-NH2] (Palmitoyl-[Lys(Me3)][Lys(Me3)][Lys(Me3)][Lys(Me3)]-NH2), the MIC was over 512 µg/mL in the data set with C. glabrata ATCC 15126; over 512 µg/mL in data set [1]; over 512 µg/mL in data set [2]; 512 µg/mL with K. aerogenes ATCC 13048; 512 µg/mL against S. aureus ATCC 33591; 32 µg/mL with E. faecium ATCC 700221. The molecule also registered an MIC against P. aeruginosa ATCC 9027 of over 512 µg/mL. In data set [3], this molecule displayed an HC50 of over 512 µg/mL. For the same molecule, the IC50 in data set [4] is listed as over 512 µg/mL.
With `CCCCCCCCCCCCCCCCCC(=O)N[C@@H](CCCC[N+](C)(C)C)C(=O)N[C@@H](CCCC[N+](C)(C)C)C(=O)N[C@@H](CCCC[N+](C)(C)C)C(=O)N[C@@H](CCCC[N+](C)(C)C)C(N)=O` [Peptide 4Sq, C18-K(Me3)^+K(Me3)^+K(Me3)^+K(Me3)^+-NH2] (Stearoyl-[Lys(Me3)][Lys(Me3)][Lys(Me3)][Lys(Me3)]-NH2), the MIC in the data set with C. glabrata ATCC 15126 came to 512 µg/mL; in [1], 256 µg/mL; in data set [2], 256 µg/mL; against K. aerogenes ATCC 13048 it was 64 µg/mL; in the data set with S. aureus ATCC 33591, 64 µg/mL; in the data set on E. faecium ATCC 700221 it was 16 µg/mL. This molecule returned an MIC in the data set on P. aeruginosa ATCC 9027 of 512 µg/mL. In [3], the concentration for 50% haemolysis (HC50) is over 512 µg/mL. Besides, the IC50 in [4] was over 512 µg/mL.
Consider `C[N+](C)(C)CC(=O)O` [betaine, N,N,N-trimethylglycine], for which the solubility in water in data set [5] was 611 mg/mL.
For the molecule C12-Orn-Orn-Trp-Trp-NH2, in the data set with S. aureus, the MIC was 0.95 to 1.95 µg/mL.
In the case of C16-CRRKKC-NH2, the IC50 in the data set with human keratinocytes is 21.3 ± 8.2.
On to C16-RRKK-NH2 [Peptide C16-RRKK-NH2], for which, in the data set with human keratinocytes, the IC50 is given as 8.1 ± 1.1.
